Experimental data as given in PMC10772524 (Haematologica, 2023).

Experiments:
[1] = system: patients with relapsed/refractory T-cell lymphoma; assay: Safety and tolerability of tenalisib plus romidepsin; type: in vivo, human; details: for Patients with three or more drug interruptions: during the combination treatment; for Patients with drug interruptions / Patients with dose reductions: overall, during combination treatment; for Patients with drug interruptions: PTCL and CTCL groups
[2] = system: peripheral T-cell lymphoma (PTCL); details: PTCL patients; cited from earlier work
patients = details: cited from earlier work
[3] = Plasma pharmacokinetics of tenalisib, IN0385 and romidepsin; type: in vivo, human; details: oral, all three cohorts
CYP3A4 = details: also substrates for CYP3A4; ref not given; cited from earlier work

| Compound | Patients with three or more drug interruptions [1] [%] | MTD/RP2D dose (recommended dose for dose expansion) in the combination ([1]; intravenous, days 1, 8, 15 of 28-day cycle, with tenalisib) [mg/m^2] | Patients with drug interruptions [1] [%] | Patients with dose reductions [1] [%] | CR rate with monotherapy [2] [%] | Discontinuation rates due to adverse events, single agent studies (patients) | MTD/RP2D dose (recommended dose for dose expansion) in the combination ([1]; orally twice daily (BID), with romidepsin) [mg] | Absorption [3] | CYP3A4 inhibition (CYP3A4) |
| --- | --- | --- | --- | --- | --- | --- | --- | --- | --- |
| C/C=C1\NC(=O)[C@H]2CSSCC/C=C/[C@H](CC(=O)N[C@H](C(C)C)C(=O)N2)OC(=O)[C@H](C(C)C)NC1=O [romidepsin, reference compound] | 24.2 | 14 | 63.6 | 33.3 | 14 | 19-28% |  |  |  |
| CC[C@H](Nc1ncnc2[nH]cnc12)c1oc2ccccc2c(=O)c1-c1cccc(F)c1 [tenalisib] | 12.1 |  | 60.6 | 27.3 | 20.0 |  | 800 | rapidly absorbed | moderate inhibitors |
